From patent publication US7704946B2, “Reversible inhibition of pyramidal gap junction activity” (Caritas St. Elizabeth's Medical Center, priority 2006, dated 2010)

System: pyramidal gap junctions
Experiment: Patch clamp recordings of electrically coupled pyramidal pairs in cortical slices, bath-applied soluble Aβ
Format: cell-based, rats and ferrets
Conditions: for washout time to restore gap junctional activity (reversibility): peptide washout

Substance	inhibition of pyramidal gap junction activity, compared between species	washout time to restore gap junctional activity (reversibility) [min]	reduction of postjunctional responses (1 μM bath-applied for 10 minutes, FIG. 2) [%]	effect on presynaptic action potentials (application of Aβ1-40, FIG. 2)
β-Amyloid [25-35] (GSNKGAIIGLM) [Aβ25-35]	same effect as Aβ 1-40 and Aβ 1-42	10	–	–
β-Amyloid [Aβ1-40, β-Amyloid [1-40]]	–	10	~50	not influenced
